Data reported in patent US20100173917A1, “UREA DERIVATIVES AS ABL MODULATORS” (Ambit Biosciences Corporation, priority 2003, published 2010).
pKd: −log10 of the molar value.

Tests used:
[1] = molecular target: T1, ABL1(DKIN) (Homo sapiens, UniProt P00519); assay: Phage-display competition binding assay (Kd), ABL1(DKIN)
T1 construct: ABL1(DKIN); fused on or other part: Fused to T7 bacteriophage particles (phage display)
Source text: (§1) The term “ND” represents non-determined values.

[2] = molecular target: T2, ABL1(E255K) (Homo sapiens, UniProt P00519, E255K); assay: Phage-display competition binding assay (Kd), ABL1(E255K)
T2 construct: made in house; host or cells: T7 bacteriophage display
Source text: as §1

[3] = molecular target: T3, ABL1(T3151) (Homo sapiens, UniProt P00519, T315I); assay: Phage-display competition binding assay (Kd), ABL1(T3151)
T3 construct: made in house; host or cells: T7 bacteriophage display
Source text: as §1

[4] = molecular target: T4, ABL1(E274K) (Homo sapiens, UniProt P00519, E255K); assay: Phage-display competition binding assay (Kd), ABL1(E274K)
T4 construct: made in house; host or cells: T7 bacteriophage display
Source text: as §1

[5] = molecular target: T5, ABL1(Y253F) (Homo sapiens, UniProt P00519, Y253F); assay: Phage-display competition binding assay (Kd), ABL1(Y253F)
T5 construct: made in house; host or cells: T7 bacteriophage display
Source text: as §1

[6] = molecular target: T6, ABL1(Q252H) (Homo sapiens, UniProt P00519, Q252H); assay: Phage-display competition binding assay (Kd), ABL1(Q252H)
T6 construct: made in house; host or cells: T7 bacteriophage display
Source text: as §1

[7] = molecular target: T7, ABL1(H396P) (Homo sapiens, UniProt P00519, H396P); assay: Phage-display competition binding assay (Kd), ABL1(H396P)
T7 construct: made in house; host or cells: T7 bacteriophage display
Source text: as §1

CC(C)(C)c1cc(NC(=O)Nc2ccc(Cl)c(C(F)(F)F)c2)no1 [Compound A1, 1-(5-tent-butylisoxazol-3-yl)-3-(4-chloro-3-(trifluoromethyl)phenyl)urea]
pKd [1]: < 5.00

CC(C)(C)c1cc(NC(=O)Nc2ccc(Br)cc2C(F)(F)F)on1 [Compound A26]
pKd [1]: < 5.00

COc1ccc(NC(=O)Nc2cc(C(C)(C)C)no2)cc1 [Compound A30]
pKd [1]: < 5.00

CC(C)(C)c1cc(NC(=O)Nc2ccc(Cl)cc2)on1 [Compound A32]
pKd [1]: < 5.00

CSc1ccc(NC(=O)Nc2cc(C(C)(C)C)no2)cc1 [Compound A39]
pKd [1]: < 5.00

CC(C)(C)c1cc(NC(=O)Nc2ccc(Br)cc2C(F)(F)F)no1 [Compound A41]
pKd [1]: < 5.00

CC(C)(C)c1cc(NC(=O)Nc2ccc(OCCCc3ccncc3)cc2)no1 [Compound G1, 1-(4-(3-(pyridin-4-yl)propoxy)phenyl)-3-(5-tert-butylisoxazol-3-yl)urea]
pKd [2]: < 5.00

CC(C)(C)c1cc(NC(=O)Nc2ccc(OCCc3ccncc3)cc2)no1 [Compound G22]
pKd [2]: < 5.00

CC(C)(C)c1cc(NC(=O)Nc2ccc(OCCc3ccccn3)cc2)no1 [Compound G27]
pKd [3]: 5.00 to 6.00
pKd [2]: < 5.00

CC(C)(C)c1csc(NC(=O)Nc2ccc(OCc3ccccc3)cc2)n1 [Compound G49]
pKd [2]: < 5.00

Cc1ccc(-n2nc(C(C)(C)C)cc2NC(=O)Nc2ccc(Br)cc2C(F)(F)F)cc1 [Compound H13]
pKd [1]: < 5.00

Cc1[nH]c(C(=O)Nc2ccc(NC(=O)Nc3cc(C(C)(C)C)on3)cc2)c(C)c1CCC(=O)O [Compound N39]
pKd [2]: < 5.00

CC(C)(C)c1cc(NC(=O)Nc2ccc(NC(=O)Cc3sc(-c4ccc(Cl)cc4)nc3-c3ccccc3)cc2)no1 [Compound N66]
pKd [1]: 6.00 to 7.00

Cc1ccc(C(=O)Nc2ccc(NC(=O)Nc3nc(C(C)(C)C)cs3)cc2)cc1 [Compound N135]
pKd [3]: < 5.00
pKd [2]: < 5.00

CC(C)(C)c1cc(NC(=O)Nc2ccc(NC(=O)c3cccc4nc5cc(O)cc(O)c5cc34)cc2)no1 [Compound N139]
pKd [3]: < 5.00

CC(C)(C)c1cc(NC(=O)Nc2ccc(NC(=O)c3c4c(nc5ccccc35)CCCC4)cc2)no1 [Compound N140]
pKd [3]: < 5.00

CC(C)(C)c1cc(NC(=O)Nc2ccc(NC(=O)c3ccnc4ccccc34)cc2)no1 [Compound N141]
pKd [2]: < 5.00

Cc1ccc(C(=O)Nc2ccc(NC(=O)Nc3cc(C(C)(C)C)on3)cc2)cn1 [Compound N142]
pKd [2]: < 5.00

CC(C)(C)c1cc(NC(=O)Nc2ccc(NC(=O)c3ccc4ccccc4n3)cc2)no1 [Compound N143]
pKd [2]: < 5.00

CC(C)(C)c1cc(NC(=O)Nc2ccc(NC(=O)c3ccc4cccnc4n3)cc2)no1 [Compound N144]
pKd [2]: < 5.00

Cc1ncccc1C(=O)Nc1ccc(NC(=O)Nc2cc(C(C)(C)C)on2)cc1 [Compound N145]
pKd [2]: < 5.00

CC(C)(C)c1cc(NC(=O)Nc2ccc(C(=O)Nc3nccnc3N)cc2)no1 [Compound N157]
pKd [4]: < 5.00

COc1cc2nc(Cl)nc(Nc3ccc(NC(=O)Nc4cc(C(C)(C)C)on4)cc3)c2cc1OC [Compound O1, 1-(4-(2-chloro-6,7-dimethoxyquinazolin-4-ylamino)phenyl)-3-(5-tert-butylisoxazol-3-yl)urea]
pKd [5]: < 5.00
pKd [3]: 5.00 to 6.00
pKd [2]: < 5.00
pKd [6]: 5.00 to 6.00
pKd [7]: < 5.00

COc1cc2ncnc(Nc3ccc(NC(=O)Nc4cc(C(C)(C)C)on4)cc3)c2cc1OC [Compound O5]
pKd [5]: 6.00 to 7.00
pKd [3]: > 7.00
pKd [2]: 6.00 to 7.00
pKd [6]: 6.00 to 7.00
pKd [1]: > 7.00
pKd [7]: 6.00 to 7.00

COC(=O)c1cccc(Sc2ncc(NC(=O)Nc3cc(C(C)(C)C)on3)s2)c1 [Compound O8]
pKd [3]: 6.00 to 7.00
